Results published in ChEMBL document CHEMBL1208785, “Discovery of novel alpha7 nicotinic receptor antagonists” (Bioorg Med Chem Lett, 2010).

Molecular target: Neuronal acetylcholine receptor subunit alpha-7 (Rattus norvegicus) (UniProt Q05941)
Assay: Displacement of [125I]alpha-bungarotoxin from alpha7 nicotinic acetylcholine receptor in rat brain membrane at 10 uM
Type: cell membranes

Sequence of Neuronal acetylcholine receptor subunit alpha-7 (Rattus norvegicus) (Q05941 whole entry): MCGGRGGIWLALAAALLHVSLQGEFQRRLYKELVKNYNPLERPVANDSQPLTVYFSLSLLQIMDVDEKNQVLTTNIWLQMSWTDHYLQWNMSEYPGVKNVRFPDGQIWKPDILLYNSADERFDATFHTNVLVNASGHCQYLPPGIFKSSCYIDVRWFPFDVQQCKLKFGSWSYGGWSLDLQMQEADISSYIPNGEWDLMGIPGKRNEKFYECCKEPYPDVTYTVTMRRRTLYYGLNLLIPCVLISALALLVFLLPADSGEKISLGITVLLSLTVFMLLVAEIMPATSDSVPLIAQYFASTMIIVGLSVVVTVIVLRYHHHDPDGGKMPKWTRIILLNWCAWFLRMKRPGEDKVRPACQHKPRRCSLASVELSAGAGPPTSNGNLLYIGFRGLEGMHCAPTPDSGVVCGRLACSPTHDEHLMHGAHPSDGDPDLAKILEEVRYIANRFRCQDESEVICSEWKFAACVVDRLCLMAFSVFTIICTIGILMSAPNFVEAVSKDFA

SMILES	inhibition [%]
Cc1ccc(-c2c(C(=O)N(C)C3CCN(C)CC3)cnn2-c2ccccc2)cc1	12.1
Cc1c(C(=O)N(C)C2CCN(C)CC2)cnn1-c1ccc(Cl)cc1	13.5
CC(C)CN1CCC(CN(C)C(=O)c2cn(Cc3cc(F)ccc3F)nn2)CC1	59.2
Cc1c(C(=O)NC2CCN(Cc3ccccc3)CC2)cnn1-c1ccc(F)cc1	50
Cc1c(C(=O)N(C)C2CCN(C)CC2)cnn1-c1ccc(F)cc1	11.9
O=C(NCC1CCN(C2CCCC2)CC1)c1cn(Cc2ccccc2Cl)nn1	21.6
COc1ccc(Cn2cc(C(=O)NCC3CCN(CCc4ccccc4)CC3)nn2)cc1	9.5
O=C(NCC1CCN(Cc2ccccc2)CC1)c1cn(Cc2ccc3ccccc3c2)nn1	70.5
Cc1ccc(-c2c(C(=O)NC3CCN(C)CC3)cnn2-c2ccccc2)cc1	23.4
COCCN1CCC(CN(C)C(=O)c2cn(Cc3ccccc3Cl)nn2)CC1	43
CCCc1c(C(=O)NC2CCN(Cc3ccccc3)CC2)cnn1-c1ccccc1	83.8
Cc1c(C(=O)NC2CCN(Cc3ccccc3)CC2)cnn1-c1ccc(Cl)cc1	64.1
O=C(NCC1CCN(CCc2ccccc2)CC1)c1cn(Cc2ccc(Cl)cc2)nn1	18.3
COCCN1CCC(CNC(=O)c2cn(Cc3ccc(Cl)cc3)nn2)CC1	27.3
CCCc1c(C(=O)NC2CCNCC2)cnn1-c1ccccc1	1
O=C(NCC1CCN(CCc2ccccc2)CC1)c1cn(Cc2ccccc2Cl)nn1	23.4
CC(C)CN1CCC(CN(C)C(=O)c2cn(Cc3ccccc3Cl)nn2)CC1	72.3
Cc1ccccc1Cn1cc(C(=O)NCC2CCN(CCc3ccccc3)CC2)nn1	25.2
CCCc1c(C(=O)NC2CCN(C)CC2)cnn1-c1ccccc1	3.1
CN1CCC(N(C)C(=O)c2cnn(-c3ccccc3-c3ccco3)c2C2CC2)CC1	10.5
